Here are results for three compounds from publication PMC9318686, “Identification of NAPRT Inhibitors with Anti-Cancer Properties by In Silico Drug Discovery” (Pharmaceuticals, 2022).

One may read the Ki as a measure of affinity in units of concentration, obtained from inhibition or displacement.

Each structure is given as a SMILES string.

In this test the target is T1, recombinant human NAPRT (nicotinic acid phosphoribosyltransferase) (Homo sapiens, UniProt Q6XQN6).
T1 construct: dimer
T1 sequence (Q6XQN6 1-538): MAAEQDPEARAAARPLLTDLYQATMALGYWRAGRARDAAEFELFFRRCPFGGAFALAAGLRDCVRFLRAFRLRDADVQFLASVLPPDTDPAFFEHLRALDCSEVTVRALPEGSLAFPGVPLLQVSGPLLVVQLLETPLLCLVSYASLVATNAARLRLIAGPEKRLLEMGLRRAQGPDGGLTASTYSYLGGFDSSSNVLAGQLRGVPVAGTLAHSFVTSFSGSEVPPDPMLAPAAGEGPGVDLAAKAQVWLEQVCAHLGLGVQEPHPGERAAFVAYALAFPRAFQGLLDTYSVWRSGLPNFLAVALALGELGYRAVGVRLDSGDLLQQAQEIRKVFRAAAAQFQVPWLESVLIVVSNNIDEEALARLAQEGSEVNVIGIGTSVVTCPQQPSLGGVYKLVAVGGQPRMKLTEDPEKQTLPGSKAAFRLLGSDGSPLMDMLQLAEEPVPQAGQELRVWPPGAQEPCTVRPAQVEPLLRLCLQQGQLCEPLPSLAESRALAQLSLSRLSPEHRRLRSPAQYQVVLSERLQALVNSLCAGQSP
The test is described as follows: HPLC of NAMN formation, Michaelis-Menten fit. Type of test: biochemical. The source says: HPLC of NAMN formation, Michaelis-Menten fit on recombinant human NAPRT (nicotinic acid phosphoribosyltransferase)
For the compound `O=C(N[C@@H](C(=O)c1ccccc1)n1cnccc1=O)c1ccccc1` [compound 1], the Ki came to 2280 µM. Turning to `O=C(O)c1cnccc1O` [compound 8], the inhibition constant Ki was determined as 308 µM. For `O=C(O)c1cnsn1` [compound 19] the value was 295 µM.
